Test results from US20090054392A1, “NAPHTHYLPYRIMIDINE, NAPHTHYLPYRAZINE AND NAPHTHYLPYRIDAZINE ANALOGS AND THEIR USE AS AGONISTS OF THE WNT-BETA-CATENIN CELLULAR MESSAGING SYSTEM” (Wyeth, priority 2007, published 2009).
Read-outs that look alike come from different tables or passages of the source.

Test system: Dkk1-LRP5-TCF-Luciferase
Assay: Functional Dkk1-LRP5-TCF-Luciferase Assay in U2OS Cells
Conditions: for fold induction at 2 µM / fold induction at 20 µM / EC50: Homo sapiens, U2OS; for A = MAX FOLD Induction/DMSO CONTROL: maximum fold induction over DMSO control
[1] = read-out: B = TCF ACTIVITY/DMSO CONTROL Fold induction @ 2.0 uM
[2] = read-out: C = TCF ACTIVITY/DMSO CONTROL Fold induction @ 20.0 uM
[3] = read-out: B = TCF ACTIVITY/DMSO CONTROL Fold induction @ 2.0 uM, 2.0 uM compound
[4] = read-out: C = TCF ACTIVITY/DMSO CONTROL Fold induction @ 20.0 uM, 20.0 uM compound

Row | A = MAX FOLD Induction/DMSO CONTROL [fold] | SMILES | fold induction at 2 µM [3] | fold induction at 20 µM [4] | other results
1 | – | c1ccc2cc(-c3ccnc(N4CCC5(CC4)OCCO5)n3)ccc2c1 [8-[4-(2-naphthyl)pyrimidin-2-yl]-1,4-dioxa-8-azaspiro[4.5]decane] | – | – | fold induction at 2 µM [1]: 1.5; fold induction at 20 µM [2]: 1.74
2 | – | OCC1CCCN([C@@H]2CCN(c3nccc(-c4ccc5ccccc5c4)n3)C2)C1 (stereo partly drawn) [(1-{(3R)-1-[4-(2-naphthyl)pyrimidin-2-yl]pyrrolidin-3-yl}piperidin-3-yl)methanol] | 1.49 | – | –
3 | – | OCC1CCN([C@@H]2CCN(c3nccc(-c4ccc5ccccc5c4)n3)C2)CC1 [(1-{(3R)-1-[4-(2-naphthyl)pyrimidin-2-yl]pyrrolidin-3-yl}piperidin-4-yl)methanol] | 1.69 | 0.01 | –
4 | – | OCC1CCCN([C@H]2CCN(c3nccc(-c4ccc5ccccc5c4)n3)C2)C1 (stereo partly drawn) [(1-{(3S)-1-[4-(2-naphthyl)pyrimidin-2-yl]pyrrolidin-3-yl}piperidin-3-yl)methanol] | 1.88 | 0.01 | –
5 | – | OCC1CCN([C@H]2CCN(c3nccc(-c4ccc5ccccc5c4)n3)C2)CC1 [(1-{(3S)-1-[4-(2-naphthyl)pyrimidin-2-yl]pyrrolidin-3-yl}piperidin-4-yl)methanol] | 1.72 | 0.94 | –
6 | – | CC(C)(O)[C@H](N)C1CCN(c2nccc(-c3ccc4ccccc4c3)n2)CC1 [(1R)-1-amino-2-methyl-1-{1-[4-(2-naphthyl)pyrimidin-2-yl]piperidin-4-yl}propan-2-ol] | 1.78 | – | –
7 | 2.280 | C[C@@H](N)C1CCN(c2nccc(-c3ccc4ccccc4c3)n2)CC1 [(1R)-1-{1-[4-(2-naphthyl)pyrimidin-2-yl]piperidin-4-yl}ethanamine] | – | – | EC50: 870 nM
8 | 1.940 | C[C@H](N)C1CCN(c2nccc(-c3ccc4ccccc4c3)n2)CC1 [(1S)-1-{1-[4-(2-naphthyl)pyrimidin-2-yl]piperidin-4-yl}ethanamine] | – | – | EC50: 865 nM
9 | – | CN1C[C@@H]2C[C@H]1CN2[C@@H]1CCN(c2nccc(-c3ccc4ccccc4c3)n2)C1 [(1S,4S)-2-methyl-5-{(3R)-1-[4-(2-naphthyl)pyrimidin-2-yl]pyrrolidin-3-yl}-2,5-diazabicyclo[2.2.1]heptane] | 1.5 | – | –
10 | – | NCCN1CCN(c2nccc(-c3ccc4ccccc4c3)n2)CC1 [(2-{4-[4-(2-naphthyl)pyrimidin-2-yl]piperazin-1-yl}ethyl)amine] | – | – | fold induction at 2 µM [1]: 1; fold induction at 20 µM [2]: 1.79
11 | 1.660 | N[C@@H](CO)C1CCN(c2nccc(-c3ccc4ccccc4c3)n2)CC1 [(2R)-2-amino-2-{1-[4-(2-naphthyl)pyrimidin-2-yl]piperidin-4-yl}ethanol] | 2.96 | – | –
12 | 3.745 | O[C@@H]1CCCN(CC2CCN(c3nccc(-c4ccc5ccccc5c4)n3)C2)C1 (stereo partly drawn) [(3R)-1-({1-[4-(2-naphthyl)pyrimidin-2-yl]pyrrolidin-3-yl}methyl)piperidin-3-ol] | 2.34 | 0.01 | EC50: 1030 nM
13 | – | O[C@@H]1CCN(CC2CCN(c3nccc(-c4ccc5ccccc5c4)n3)C2)C1 (stereo partly drawn) [(3R)-1-({1-[4-(2-naphthyl)pyrimidin-2-yl]pyrrolidin-3-yl}methyl)pyrrolidin-3-ol] | 1.2 | – | –
14 | – | N[C@@H]1CCN(c2nccc(-c3ccc4ccccc4c3)n2)C1 [(3R)-1-[4-(2-naphthyl)pyrimidin-2-yl]pyrrolidin-3-amine] | 1.62 | 0.01 | –
15 | – | O[C@@H]1CCCN([C@@H]2CCN(c3nccc(-c4ccc5ccccc5c4)n3)C2)C1 [(3R)-1-{(3R)-1-[4-(2-naphthyl)pyrimidin-2-yl]pyrrolidin-3-yl}piperidin-3-ol] | – | – | EC50: 2200 nM
16 | – | O[C@@H]1CCCN([C@H]2CCN(c3nccc(-c4ccc5ccccc5c4)n3)C2)C1 [(3R)-1-{(3S)-1-[4-(2-naphthyl)pyrimidin-2-yl]pyrrolidin-3-yl}piperidin-3-ol] | – | 2.9 | –
17 | 5.305 | O=CN1CC[C@@H](Nc2nccc(-c3ccc4ccccc4c3)n2)C1 [(3R)-3-{[4-(2-naphthyl)pyrimidin-2-yl]amino}pyrrolidine-1-carbaldehyde] | 1.03 | 2.69 | EC50: 7170 nM
18 | 5.295 | NC(=O)N1CC[C@@H](Nc2nccc(-c3ccc4ccccc4c3)n2)C1 [(3R)-3-{[4-(2-naphthyl)pyrimidin-2-yl]amino}pyrrolidine-1-carboxamide] | – | 2.42 | EC50: 8710 nM
19 | 1.440 | CN(C)[C@@H]1CCN(C[C@H]2CCN(c3nccc(-c4ccc5ccccc5c4)n3)C2)C1 [(3R)—N,N-dimethyl-1-({(3R)-1-[4-(2-naphthyl)pyrimidin-2-yl]pyrrolidin-3-yl}methyl)pyrrolidin-3-amine] | 2.24 | 0.02 | –

Row | A = MAX FOLD Induction/DMSO CONTROL [fold] | SMILES | fold induction at 2 µM [3] | fold induction at 20 µM [4] | other results
20 | – | CN(C)[C@@H]1CCN(C[C@@H]2CCN(c3nccc(-c4ccc5ccccc5c4)n3)C2)C1 [(3R)—N,N-dimethyl-1-({(3S)-1-[4-(2-naphthyl)pyrimidin-2-yl]pyrrolidin-3-yl}methyl)pyrrolidin-3-amine] | 1.53 | 0.03 | –
21 | 5.193 | CN(C)[C@@H]1CCN(c2nccc(-c3ccc4ccccc4c3)n2)C1 [(3R)—N,N-dimethyl-1-[4-(2-naphthyl)pyrimidin-2-yl]pyrrolidin-3-amine] | 2.88 | 0.065 | EC50: 3560 nM
22 | 1.630 | CN(C)[C@@H]1CCN(C(=O)[C@H]2CCCN2c2nccc(-c3ccc4ccccc4c3)n2)C1 [(3R)—N,N-dimethyl-1-{1-[4-(2-naphthyl)pyrimidin-2-yl]-D-prolyl}pyrrolidin-3-amine] | 0.93 | 1.85 | –
23 | 2.335 | CN(C)[C@@H]1CCN(C(=O)[C@@H]2CCCN2c2nccc(-c3ccc4ccccc4c3)n2)C1 [(3R)—N,N-dimethyl-1-{1-[4-(2-naphthyl)pyrimidin-2-yl]-L-prolyl}pyrrolidin-3-amine] | 1.1 | 4.43 | –
24 | – | CN(C)C(=O)N1CC[C@@H](Nc2nccc(-c3ccc4ccccc4c3)n2)C1 [(3R)—N,N-dimethyl-3-{[4-(2-naphthyl)pyrimidin-2-yl]amino}pyrrolidine-1-carboxamide] | – | 1.33 | –
25 | 2.510 | CN(C)S(=O)(=O)N1CC[C@@H](Nc2nccc(-c3ccc4ccccc4c3)n2)C1 [(3R)—N,N-dimethyl-3-{[4-(2-naphthyl)pyrimidin-2-yl]amino}pyrrolidine-1-sulfonamide] | – | 2.31 | EC50: 3160 nM
26 | – | c1ccc2cc(-c3ccnc(N4CC[C@@H](NCCN5CCOCC5)C4)n3)ccc2c1 [(3R)—N-(2-morpholin-4-ylethyl)-1-[4-(2-naphthyl)pyrimidin-2-yl]pyrrolidin-3-amine] | 1.71 | 0.21 | –
27 | – | CC(C)(C)N[C@@H]1CCN(c2nccc(-c3ccc4ccccc4c3)n2)C1 [(3R)—N-(tert-butyl)-1-[4-(2-naphthyl)pyrimidin-2-yl]pyrrolidin-3-amine] | 1.56 | 0.29 | –
28 | – | CN(C1CCCCC1)[C@@H]1CCN(c2nccc(-c3ccc4ccccc4c3)n2)C1 [(3R)—N-cyclohexyl-N-methyl-1-[4-(2-naphthyl)pyrimidin-2-yl]pyrrolidin-3-amine] | 1.07 | 1.77 | –
29 | 1.460 | CCNC(=O)N1CC[C@@H](Nc2nccc(-c3ccc4ccccc4c3)n2)C1 [(3R)—N-ethyl-3-{[4-(2-naphthyl)pyrimidin-2-yl]amino}pyrrolidine-1-carboxamide] | – | 2.01 | –
30 | – | CN[C@@H]1CCN(c2nccc(-c3ccc4ccccc4c3)n2)C1 [(3R)—N-methyl-1-[4-(2-naphthyl)pyrimidin-2-yl]pyrrolidin-3-amine] | 1.2 | – | –
31 | – | N[C@@H]1CCN([C@@H]2CCN(c3nccc(-c4ccc5ccccc5c4)n3)C2)C1 [(3R,3′R)-1′-[4-(2-naphthyl)pyrimidin-2-yl]-1,3′-bipyrrolidin-3-amine] | 1.39 | – | –
32 | – | O[C@@H]1CCN([C@@H]2CCN(c3nccc(-c4ccc5ccccc5c4)n3)C2)C1 [(3R,3′R)-1′-[4-(2-naphthyl)pyrimidin-2-yl]-1,3′-bipyrrolidin-3-ol] | – | 2.5 | –
33 | 1.710 | CN(C)[C@@H]1CCN([C@@H]2CCN(c3nccc(-c4ccc5ccccc5c4)n3)C2)C1 [(3R,3′R)-N,N-dimethyl-1′-[4-(2-naphthyl)pyrimidin-2-yl]-1,3′-bipyrrolidin-3-amine] | 2.71 | 0.01 | –
34 | – | O[C@@H]1CCN([C@H]2CCN(c3nccc(-c4ccc5ccccc5c4)n3)C2)C1 [(3R,3′S)-1′-[4-(2-naphthyl)pyrimidin-2-yl]-1,3′-bipyrrolidin-3-ol] | 2.1 | – | –
35 | 4.637 | CN(C)[C@@H]1CCN([C@H]2CCN(c3nccc(-c4ccc5ccccc5c4)n3)C2)C1 [(3R,3′S)-N,N-dimethyl-1′-[4-(2-naphthyl)pyrimidin-2-yl]-1,3′-bipyrrolidin-3-amine] | 4.17 | – | EC50: 1070 nM
36 | 6.950 | O[C@H]1CCCN(CC2CCN(c3nccc(-c4ccc5ccccc5c4)n3)C2)C1 (stereo partly drawn) [(3S)-1-({1-[4-(2-naphthyl)pyrimidin-2-yl]pyrrolidin-3-yl}methyl)piperidin-3-ol] | 4.34 | – | EC50: 1010 nM
37 | – | O[C@H]1CCN(CC2CCN(c3nccc(-c4ccc5ccccc5c4)n3)C2)C1 (stereo partly drawn) [(3S)-1-({1-[4-(2-naphthyl)pyrimidin-2-yl]pyrrolidin-3-yl}methyl)pyrrolidin-3-ol] | 3.2 | – | –
